Assay results: US20200017495A1, “NOVEL HETEROCYCLIC COMPOUNDS AND THEIR USE IN PREVENTING OR TREATING BACTERIAL INFECTIONS” (priority 2017, published 2020)
“And” between values parts separate entries of the source, which are not always exact repeats. Identical values can stand only once. Like-named read-outs stand apart in the source and are kept apart here.

Experiments:
[1] = system: Citrobacter murliniae (CMU) isolates; test: MIC of compounds alone and combined with antibacterials, broth microdilution (CLSI); type: cell-based
Outline: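 Visual read-out: MIC is the lowest concentration stopping growth, and in combinations the lowest antibacterial concentration doing so at each fixed compound level. Inoculum 5.10^5 CFU/mL log-phase cells in ca-MHB, 35° C, 16-20 h, ambient air.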

[2] = system: Klebsiella pneumoniae (KPN) isolates; test: as above; type: cell-based
Outline: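 Log-phase isolates were inoculated at a final 5.10^5 CFU/mL in cation-adjusted Mueller-Hinton broth and incubated 16-20 h at 35° C in ambient air. MIC was the lowest concentration preventing visible growth; for combinations, the antibacterial MIC was read at each compound concentration.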

Structure (SMILES): CC1(C)S[C@@H]2[C@H](NC(=O)[C@H](N)c3ccc(O)cc3)C(=O)N2[C@H]1C(=O)O [AMX, Amoxicillin]
- MIC ATB in combination [1]: >128 µg/mL
- MIC ([1]; strain CMU 210102, genotype VIM-4): >256 µg/mL
- MIC [2]: >128 µg/mL
- MIC ATB in combination [2]: >128 µg/mL and 128 µg/mL and <128 µg/mL
- MIC ATB in combination ([2]; KPN 6299, AF2 @ 8 μg/mL): 2 µg/mL
- MIC ATB in combination ([2]; KPN 6299, CLA @ 4 μg/mL): >512 µg/mL
- MIC ATB in combination ([2]; KPN 110376, AF2 @ 8 μg/mL): 0.5 µg/mL
- MIC ATB in combination ([2]; KPN 131119, CLA @ 4 μg/mL): >512 µg/mL
- MIC ATB in combination ([2]; KPN 160143, AF2 @ 8 μg/mL): <0.25 µg/mL
- MIC ATB in combination ([2]; KPN 190551, AF2 @ 8 μg/mL): <0.25 µg/mL
- MIC ATB in combination ([2]; KPN 200047, AF2 @ 8 μg/mL): <0.25 µg/mL
- MIC ATB in combination ([2]; KPN 200047, CLA @ 4 μg/mL): 32 µg/mL
- MIC ATB in combination ([2]; KPN 200327, AF2 @ 8 μg/mL): <0.25 µg/mL
- MIC ATB in combination ([2]; KPN 200327, CLA @ 4 μg/mL): 32 µg/mL
- MIC ATB in combination ([2]; KPN 260251, AF2 @ 8 μg/mL): 4 µg/mL
- MIC ATB in combination ([2]; KPN 260376, AF2 @ 8 μg/mL): <0.25 µg/mL
- MIC ATB in combination ([2]; KPN 270077, AF2 @ 8 μg/mL): 32 µg/mL
- MIC ATB in combination ([2]; KPN 270077, CLA @ 4 μg/mL): 32 µg/mL
- MIC ATB in combination ([2]; KPN 700603, AF2 @ 8 μg/mL): 4 µg/mL
- MIC ATB in combination ([2]; KPN 700603, CLA @ 4 μg/mL): 8 µg/mL
- MIC ATB in combination ([2]; KPN ARA, AF2 @ 8 μg/mL): <=0.25 μg/mL
- MIC ATB in combination ([2]; KPN BAA-1898, CLA @ 4 μg/mL): >512 µg/mL
- MIC ATB in combination ([2]; KPN LIB, AF2 @ 8 μg/mL): <=0.25 μg/mL
- MIC ATB in combination ([2]; KPN LIB, CLA @ 4 μg/mL): >512 µg/mL
- MIC ATB in combination ([2]; KPN UFR22_O, AF2 @ 8 μg/mL): 0.5 µg/mL
- MIC ATB in combination ([2]; KPN UFR23, AF2 @ 8 μg/mL): 4 µg/mL
- MIC ATB in combination ([2]; KPN UFR24, AF2 @ 8 μg/mL): 32 µg/mL
- MIC ATB in combination ([2]; KPN UFR25, AF2 @ 8 μg/mL): <0.25 µg/mL
- MIC ATB in combination ([2]; KPN UFR28, AF2 @ 8 μg/mL): <=0.25 μg/mL
- MIC ATB in combination ([2]; KPN UFR33, AF2 @ 8 μg/mL): 8 µg/mL
- MIC ATB in combination ([2]; KPN UFR43, AF2 @ 8 μg/mL): <0.25 µg/mL
- MIC ATB in combination ([2]; KPN UFR53, AF2 @ 8 μg/mL): <0.25 µg/mL
- MIC ATB in combination ([2]; KPN UFR77, AF2 @ 8 μg/mL): <0.25 µg/mL
- MIC ATB in combination ([2]; KPN UFR80, AF2 @ 8 μg/mL): 64 µg/mL
- MIC ATB in combination ([2]; KPN UFR218, CLA @ 4 μg/mL): 32 µg/mL
- MIC ([2]; strain KPN 6299, genotype TEM-1, SHV-11, OXA-163): >1024 µg/mL
- MIC ([2]; strain KPN 110376, genotype TEM-1, SHV-1, CTX-M-15, OXA-1, OXA-48): >256 µg/mL
- MIC ([2]; strain KPN 121206, genotype SHV-1, NDM-1): >256 µg/mL
- MIC ([2]; strain KPN 131119, genotype TEM-1, SHV-11, CTX-M-15, OXA-1, OXA-48): >256 µg/mL
- MIC ([2]; strain KPN 140347, genotype CTX-M-15, NDM-1, antibiotic alone): >128 µg/mL
- MIC ([2]; strain KPN 140513, genotype TEM-1, SHV-11, CTX-M-15, KPC-3): >256 µg/mL
- MIC ([2]; strain KPN 160143, genotype TEM-1, SHV-1, CTX-M-15, KPC-2, OXA-1): >256 µg/mL
- MIC ([2]; strain KPN 190128, genotype TEM-1, SHV-32, CTX-M-15, OXA-1): >256 µg/mL
- MIC ([2]; strain KPN 190270, genotype TEM-1, SHV-76, CTX-M-15, OXA-1): >256 µg/mL
- MIC ([2]; strain KPN 190425, genotype TEM-1, SHV-1, CTX-M-15, OXA-1): >256 µg/mL
- MIC ([2]; strain KPN 190551, genotype TEM-1, SHV-1, CTX-M-15, OXA-1): >256 µg/mL
- MIC ([2]; strain KPN 200047, genotype TEM-1, SHV-32, CTX-M-15, OXA-1): >256 µg/mL
- MIC ([2]; strain KPN 200327, genotype TEM-1, SHV-1, CTX-M-15, OXA-1): >256 µg/mL
- MIC ([2]; strain KPN 260251, genotype TEM-1, SHV-11, SHV-12, CTX-M-15, KPC-2): >256 µg/mL
- MIC ([2]; strain KPN 260252, genotype TEM-1, SHV-11, KPC-3): >256 µg/mL
- MIC ([2]; strain KPN 260376, genotype SHV-1, SHV-49, OXA-1): >256 µg/mL
- MIC ([2]; strain KPN 270077, genotype TEM-1, SHV-1, CTX-M-15): >256 µg/mL
- MIC ([2]; strain KPN 700603, genotype SHV-18, OXA-2): >256 µg/mL
- MIC ([2]; strain KPN ARA, genotype TEM-1, SHV-11, CTX-M-15, OXA-1, OXA-48): >256 µg/mL
- MIC ([2]; strain KPN BAA-1898, genotype TEM-1, SHV-11, SHV-12, KPC-2): >1024 µg/mL
- MIC ([2]; strain KPN LIB, genotype SHV-11, OXA-48): >256 µg/mL
- MIC ([2]; strain KPN UFR22_O, genotype TEM-1, SHV-1, OXA-48): >256 µg/mL
- MIC ([2]; strain KPN UFR23, genotype TEM-1, SHV-1, OXA-48): >256 µg/mL
- MIC ([2]; strain KPN UFR24, genotype TEM-1, SHV-2, SHV-11, OXA-1, OXA-48, OXA-47): >256 µg/mL
- MIC ([2]; strain KPN UFR25, genotype TEM-1, SHV-11, CTX-M-15, OXA-162): >256 µg/mL
- MIC ([2]; strain KPN UFR27, genotype TEM-1, SHV-28, CTX-M-15, OXA-204): >256 µg/mL
- MIC ([2]; strain KPN UFR28, genotype TEM-1, SHV-1, CTX-M-15, OXA-1, OXA-232): >256 µg/mL
- MIC ([2]; strain KPN UFR33, genotype TEM-2, SHV-12, CTX-M-15, OXA-1, OXA-10): >256 µg/mL
- MIC ([2]; strain KPN UFR42, genotype SHV-2, CTX-M-15 OXA-1, OXA-181, NDM-1): >256 µg/mL
- MIC ([2]; strain KPN UFR43, genotype SHV-11, CTX-M-15, CMY-2, OXA-1, NDM-1): >256 µg/mL
- MIC ([2]; strain KPN UFR46, genotype TEM-1, SHV-12, CTX-M-15, OXA-9, VIM-1): >256 µg/mL
- MIC ([2]; strain KPN UFR53, genotype TEM-1, IMP-1): >256 µg/mL
